Assay results from patent publication US20100055168A1, “CATIONIC LIPIDS AND USES THEREOF” (ABBOTT LABORATORIES, priority 2008, published 2010).

What was measured:
Type in all cases: physicochemical
Conditions in all cases: Lipid:siRNA 25:1
[1] = Ribogreen assay for siRNA encapsulation efficiency of Lipid-Based Particles
Protocol: The mixing solution of cationic lipids, cholesterol, non-cationic lipids and PEG-lipids was prepared in ethanol (total concentration at 10 mg/mL). siSTABLE (purchased from ThermoFisher) (sense-5′ GGGGAAAGCUGGCAAGAUUUU-3′ SEQ ID NO: 1) antisense-5′-AAUCUUGCCAGCUUUCCCCUU-3′ SEQ ID NO: 2) % stock solution was prepared in 10 mg/mL of solution by dissolving 10 mg siRNA in 1 mL of RNAse-free UltraPure Water. The calculated amount of siRNA solution was added to 1 mL of citrate buffer (pH 4.0, 20 mM), to provide an siRNA concentration of 0.2 mg/mL, and warmed to 60° C. The calculated amount of lipid solution was warmed to 60° C., transferred to a 0.5 mL syringe with 28½ gauge needle, and injected into the citrate buffer with stirring at 60° C. After 3 minutes, 3 mL of PBS solution at room temperature (pH 7.4) was added into the lipid mixture with stirring. The Lipid-Based Particle solution was cooled to room temperature.
(§1) The siRNA concentrations were measured using Quanti-iT RiboGreen RNA reagent (Molecular Probes, (R11490)). Vesicle sizes were characterized by dynamic light scattering with a DynaPro™ Plate Reader (Wyatt Technology) in 96-well half-area UV plate (Coring) after diluting the formulation sample (20 μL) in phosphate buffered saline (80 μL) at a pH of about 7-8. A 1% agarose gel-based assay was used for analyzing nuclease degradation and protection. Encapsulation efficiency (EE) was calculated using data obtained from a RiboGreen assay.
RNA concentration and encapsulation efficiency were determined using a Quant-iT® Ribogreen RNA reagent and kit available from Invitrogen. The siRNA was released from the Lipid-Based Particle using one of the following reagents: ethanol, Triton X-100, or phenol/chloroform. The siRNA concentration is quantified using fluorescent reading at 480 nm/520 nm.
(§2) A round bottom flask was submerged into a 65° C. water bath. Citrate buffer (37.5 ml) of pH 4.0 was pipetted into the flask. The solution was stirred by a magnetic stirring bar at a speed of 900 rpm. Both the pH 4.0 citrate buffer and the lipid solution were pre-warmed in the 65° C. water bath for about 3 minutes. A siRNA solution (0.5 ml) was pipetted into the pH 4.0 citrate buffer. The 12.5 ml lipid mixture solution was injected through a 27 gauge needle into the citrate buffer in about 30 seconds. The needle tip was inserted into the solution during the injection. The resulting solution was stirred for 5 minutes at a speed of 900 rpm. The flask was pulled up from the water bath and a 50 ml pH 7.4 PBS buffer was added into the flask. The final solution was further mixed at a speed of 900 rpm for 5 minutes. For the diafiltration process, a dialysis filter (Millipore, 100K, Cat #PXB100C50) was used to remove ethanol in the above solution. When the volume was reduced to 20 ml during the initial diafiltration, 20 ml of pH 7.4 PBS was added to the sample solution. The diafiltration was continued until the volume was reduced to 20 ml. The diafiltration process was repeated 4 times. The volume of the sample solution was reduced to about 12 ml and pH 7.4 PBS was added to make the final volume of 15 ml. The 15 ml solution was filtered sequentially through the 0.45 and 0.22 μm sterile PVDF membrane filters (Millipore) and immediately transferred into a sterile vial.

[2] = Particle sizing assay of in vitro formulations (dynamic light scattering, DynaPro plate reader)
Protocol: as §1
Particle sizes and size distributions (PDI) were characterized by using dynamic light scattering (DLS). A DLS plate reader (Dynapro™, Wyatt Technology) was used for the DLS measurement. This DLS plate reader uses an 830 nm laser and the scattering angle is 158°. It also can control temperature from 4° C. to 70° C. A 96-well format was employed for the samples.
Samples for DLS analysis were prepared by mixing 20 μL of each sample stock solution with 80 μL PBS directly in the 96-well plate (#3697, Coming). Sample mixing was accomplished using a microplate shaker (Orbis, Mikura Ltd.). Plates were read at 20° C. with an acquisition time of 50 seconds for each sample, and data was analyzed with Wyatt Technology's Dynamics V6 software. To rule out potential multiple scattering artifacts, a second plate at […] reduced sample concentrations was independently prepared by mixing 5 μL stock solutions with 95 μL PBS. Under our experimental conditions the results at the two concentrations were very similar, and the final reported result for each sample represents the average of values obtained from the two plates.

[3] = Particle sizing assay of in vivo formulations (Zetasizer Nano ZS)
Protocol: as §2
For measurements of particle sizes and size distributions (PDI), lipid-based particles were prepared as described above. The particle solution (60 μL) was pipetted into a disposable cuvette (UVette, Eppendorf, cat #952010051) and measured in the “General Purpose” mode. Attenuator and position were optimized by the device. Measurements were performed using a Zetasizer Nano ZS (Malvern Instruments) equipped with a 4 mW He—Ne laser at a wavelength of 633 nm at 25° C. Scattered light was detected at a 173° backward scattering angle. The viscosity and refractive index of water at 25° C. was used for data analysis with the Dispersion Technology Software 5.00 (Malvern Instruments).

[4] = in vitro formulation b: Cationic lipid/PEG-Chol/DSPC/Chol 45/10/15/30 wt %
[5] = in vivo formulation C: Cationic lipid/Pal-PEG-Cera/DSPC/Chol 45/10/15/30 wt %
[6] = in vivo formulation A: Cationic lipid/Example 58/DSPC/Chol 45/10/15/30 wt %
[7] = in vitro formulation a: Cationic lipid/Example 56/DSPC/Chol 45/10/15/30 wt %
[8] = in vivo formulation D: Cationic lipid/PEG-DMPE/PEG-DSPE/DSPC/Chol 44/4.5/4.5/14/33 wt %

Compound | % Encapsulation Efficiency [1, 4] [%] | Size [2, 4] [nm] | PDI (size distribution) [3, 6] | Size [3, 6] [nm] | % Encapsulation Efficiency [1, 6] [%] | % Encapsulation Efficiency [1, 7] [%] | Size [2, 7] [nm] | other results
CCCCC/C=C\C/C=C\CCCCCCCCOCC(COCCCCCCCC/C=C\C/C=C\CCCCC)NCCc1c[nH]cn1 [Example 9, N-(2-(1H-imidazol-4-yl)ethyl)-N-(2-((9Z,12Z)-octadeca-9,12-dienyloxy)-1-(((9Z,12Z)-octadeca-9,12-dienyloxy)methyl)ethyl)amine] | 95.8 | 116.8 | 0.13 | 138 | – | – | – | % Encapsulation Efficiency [1, 5]: 98.9%; PDI (size distribution) [3, 5]: 0.104; Size [3, 5]: 87 nm
CCCCC/C=C\C/C=C\CCCCCCCCOCC(COCCCCCCCC/C=C\C/C=C\CCCCC)NCCCn1ccnc1 [Example 3, N-(3-(1H-imidazol-1-yl)propyl)-N-(2-((9Z,12Z)-octadeca-9,12-dienyloxy)-1-(((9Z,12Z)-octadeca-9,12-dienyloxy)methyl)ethyl)amine] | – | – | – | 185 | 87.6 | – | – | –
CCCCC/C=C\C/C=C\CCCCCCCCOCC(COCCCCCCCC/C=C\C/C=C\CCCCC)NCCCN1CCCC1 [Example 6, N-(2-((9Z,12Z)-octadeca-9,12-dienyloxy)-1-(((9Z,12Z)-octadeca-9,12-dienyloxy)methyl)ethyl)-N-(3-pyrrolidin-1-ylpropyl)amine] | 84.2 | 132.6 | 0.145 | 121 | 75.5 | – | – | –
CCCCC/C=C\C/C=C\CCCCCCCCOCC(COCCCCCCCC/C=C\C/C=C\CCCCC)N1CCN(C)CC1 [Example 4, 1-methyl-4-(2-((9Z,12Z)-octadeca-9,12-dienyloxy)-1-(((9Z,12Z)-octadeca-9,12-dienyloxy)methyl)ethyl)piperazine] | 96.7 | 125.6 | 0.2 | 149 | 72.6 | – | – | –
CCCCC/C=C\C/C=C\CCCCCCCCOCC(COCCCCCCCC/C=C\C/C=C\CCCCC)NCCN(C)C [Example 7, N,N-dimethyl-N′-(2-((9Z,12Z)-octadeca-9,12-dienyloxy)-1-(((9Z,12Z)-octadeca-9,12-dienyloxy)methyl)ethyl)ethane-1,2-diamine] | 91.8 | 130 | 0.15 | 123 | – | – | – | % Encapsulation Efficiency [1, 5]: 91.8%; PDI (size distribution) [3, 5]: 0.128; Size [3, 5]: 119 nm
CCCCC/C=C\C/C=C\CCCCCCCCOCC(COCCCCCCCC/C=C\C/C=C\CCCCC)N(C)Cc1cccc(CN2CCCC2)c1 [Example 18, N-methyl-N-(2-((9Z,12Z)-octadeca-9,12-dienyloxy)-1-(((9Z,12Z)-octadeca-9,12-dienyloxy)methyl)ethyl)-N-(3-(pyrrolidin-1-ylmethyl)benzyl)amine] | – | – | – | – | – | 96.7 | 122 | –
CCCCC/C=C\C/C=C\CCCCCCCCOCC(COCCCCCCCC/C=C\C/C=C\CCCCC)N(C)CCCN1CCCC1 [Example 14, N-methyl-N-(2-((9Z,12Z)-octadeca-9,12-dienyloxy)-1-(((9Z,12Z)-octadeca-9,12-dienyloxy)methyl)ethyl)-N-(3-pyrrolidin-1-ylpropyl)amine] | 88.3 | 128.4 | – | – | – | – | – | –
CCCCC/C=C\C/C=C\CCCCCCCCOCC(COCCCCCCCC/C=C\C/C=C\CCCCC)NCCN1CCN(C)CC1 [Example 8, N-(2-(4-methylpiperazin-1-yl)ethyl)-N-(2-((9Z,12Z)-octadeca-9,12-dienyloxy)-1-(((9Z,12Z)-octadeca-9,12-dienyloxy)methyl)ethyl)amine] | 81.8 | 107.6 | – | – | – | – | – | –

Now from value to compound, other results behind:

% Encapsulation Efficiency [1, 4] [%] | Size [2, 4] [nm] | PDI (size distribution) [3, 6] | Size [3, 6] [nm] | % Encapsulation Efficiency [1, 6] [%] | % Encapsulation Efficiency [1, 7] [%] | Size [2, 7] [nm] | Compound | other results
98.1 | – | 0.054 | 116 | 93.2 | – | – | CCCCC/C=C\C/C=C\CCCCCCCCOCC(COCCCCCCCC/C=C\C/C=C\CCCCC)CN1CCN(C)CC1 [Example 23, 1-methyl-4-(3-((9Z,12Z)-octadeca-9,12-dienyloxy)-2-(((9Z,12Z)-octadeca-9,12-dienyloxy)methyl)propyl)piperazine] | –
– | – | – | – | – | 77.9 | 111.6 | CCCCC/C=C\C/C=C\CCCCCCCCOCC(COCCCCCCCC/C=C\C/C=C\CCCCC)N1CCN(CCN2CCCC2)CC1 [Example 52, 1-(2-[(9Z,12Z)-octadeca-9,12-dienyloxy]-1-{[(9Z,12Z)-octadeca-9,12-dienyloxy]methyl}ethyl)-4-(2-pyrrolidin-1-ylethyl)piperazine] | –
99.0 | – | – | – | – | – | – | CCCCCCCC/C=C\CCCCCCCCOCC(COCCCCCCCC/C=C\CCCCCCCC)NCCCN1CCCC1 [Example 53, N-(2-[(9Z)-octadec-9-enyloxy]-1-{[(9Z)-octadec-9-enyloxy]methyl}ethyl)-N-(3-pyrrolidin-1-ylpropyl)amine] | % Encapsulation Efficiency [1, 8]: 99.0%; PDI (size distribution) [3, 8]: 0.089; Size [3, 8]: 121.2 nm
– | – | – | – | – | 88.4 | 120.8 | CCCCC/C=C\C/C=C\CCCCCCCC(=O)OCC(COC(=O)CCCCCCC/C=C\C/C=C\CCCCC)NCCCN1CCCC1 [Example 22, (9Z,9′Z,12Z,12′Z)-2-(3-(pyrrolidin-1-yl)propylamino)propane-1,3-diyl dioctadeca-9,12-dienoate] | –
– | – | – | – | – | 96.6 | 117.2 | CCCCC/C=C\C/C=C\CCCCCCCC(=O)OCC(COC(=O)CCCCCCC/C=C\C/C=C\CCCCC)N1CCN(C)CC1 [Example 21, (9Z,9′Z,12Z,12′Z)-2-(4-methylpiperazin-1-yl)propane-1,3-diyl dioctadeca-9,12-dienoate] | –
